Toxic doses and inconclusive results are not listed.
Test system: CD2F1 mice, L1210 leukemia ip, survival T/C
Experiment: NCI In Vivo Anticancer Drug Screen. Data for tumor model L1210 Leukemia (intraperitoneal) in CD2F1 (CDF1) mice
Conditions: higher = longer survival
Procedure, shortened: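 Mice carrying a transplanted tumor received test compound or vehicle alone. The value is the measurement in the treated group divided by that in the vehicle-treated control group.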

[1] = endpoint: mean survival time, dose: 100.0 mg/kg/injection, schedule: Q04DX003 (ip), vehicle: saline with Tween-80
[2] = endpoint: mean survival time, dose: 200.0 mg/kg/injection, schedule: Q04DX003 (ip), vehicle: saline with Tween-80
[3] = endpoint: mean survival time, dose: 400.0 mg/kg/injection, schedule: Q04DX003 (ip), vehicle: saline with Tween-80

CC(C)(C)[Si](C)(C)Oc1ncc(F)c(O[Si](C)(C)C(C)(C)C)n1
T/C (endpoint: mean survival time, dose: 5.0 mg/kg/injection, schedule: Q01DX009 (ip), vehicle: distilled water + Tween-80): 123 % of control
T/C (endpoint: mean survival time, dose: 10.0 mg/kg/injection, schedule: Q01DX009 (ip), vehicle: distilled water + Tween-80): 113 % of control
T/C (endpoint: mean survival time, dose: 20.0 mg/kg/injection, schedule: Q01DX009 (ip), vehicle: distilled water + Tween-80): 123 % of control

CC1CC(NC(=S)NC(=O)c2ccccc2Cl)CC(C)(C)C1 (stereo not given)
T/C (endpoint: mean survival time, dose: 100.0 mg/kg/injection, schedule: Q01DX009 (ip), vehicle: saline with Tween-80): 86 % of control
T/C (endpoint: mean survival time, dose: 200.0 mg/kg/injection, schedule: Q01DX009 (ip), vehicle: saline with Tween-80): 86 % of control
T/C (endpoint: mean survival time, dose: 400.0 mg/kg/injection, schedule: Q01DX009 (ip), vehicle: saline with Tween-80): 86 % of control

CN(C)Cc1cc(C(C)(C)C)c(O)c(C(C)(C)C)c1
T/C (endpoint: mean survival time, dose: 25.0 mg/kg/injection, schedule: Q04DX003 (ip), vehicle: saline with Tween-80): 112 % of control
T/C (endpoint: mean survival time, dose: 50.0 mg/kg/injection, schedule: Q04DX003 (ip), vehicle: saline with Tween-80): 108 % of control
T/C [1]: 100 % of control

CN(Cc1ccccc1)/N=N/c1nc[nH]c1C(N)=O
T/C (endpoint: mean survival time, dose: 4.0 mg/kg/injection, schedule: Q01DX009 (ip), vehicle: Klucel (hydroxypropylcellulose) (HPC)): 98 % of control
T/C (endpoint: mean survival time, dose: 8.0 mg/kg/injection, schedule: Q01DX009 (ip), vehicle: Klucel (hydroxypropylcellulose) (HPC)): 98 % of control
T/C (endpoint: mean survival time, dose: 16.1 mg/kg/injection, schedule: Q01DX009 (ip), vehicle: Klucel (hydroxypropylcellulose) (HPC)): 102 % of control
T/C (endpoint: mean survival time, dose: 32.2 mg/kg/injection, schedule: Q01DX009 (ip), vehicle: Klucel (hydroxypropylcellulose) (HPC)): 106 % of control
T/C (endpoint: mean survival time, dose: 129.0 mg/kg/injection, schedule: Q01DX009 (ip), vehicle: Klucel (hydroxypropylcellulose) (HPC)): 95 % of control
T/C (endpoint: mean survival time, dose: 258.0 mg/kg/injection, schedule: Q01DX009 (ip), vehicle: Klucel (hydroxypropylcellulose) (HPC)): 70 % of control
T/C (endpoint: median survival time, dose: 8.0 mg/kg/injection, schedule: Q03HX016 (ip), vehicle: saline with Tween-80): 106 % of control
T/C (endpoint: median survival time, dose: 8.0 mg/kg/injection, schedule: Q03HX024 (ip), vehicle: saline with Tween-80): 115 % of control
T/C (endpoint: median survival time, dose: 16.0 mg/kg/injection, schedule: Q03HX016 (ip), vehicle: saline with Tween-80): 112 % of control
T/C (endpoint: median survival time, dose: 16.0 mg/kg/injection, schedule: Q03HX024 (ip), vehicle: saline with Tween-80): 124 % of control
T/C (endpoint: median survival time, dose: 32.0 mg/kg/injection, schedule: Q03HX016 (ip), vehicle: saline with Tween-80): 123 % of control
T/C (endpoint: median survival time, dose: 64.0 mg/kg/injection, schedule: Q04DX003 (ip), vehicle: saline with Tween-80): 116 % of control
T/C (endpoint: median survival time, dose: 64.0 mg/kg/injection, schedule: Q08DX002 (ip), vehicle: saline with Tween-80): 105 % of control
T/C (endpoint: median survival time, dose: 128.0 mg/kg/injection, schedule: Q04DX003 (ip), vehicle: saline with Tween-80): 123 % of control
T/C (endpoint: median survival time, dose: 128.0 mg/kg/injection, schedule: Q08DX002 (ip), vehicle: saline with Tween-80): 112 % of control
T/C (endpoint: median survival time, dose: 256.0 mg/kg/injection, schedule: Q01DX009 (ip), vehicle: saline with Tween-80): 120 % of control
T/C (endpoint: median survival time, dose: 256.0 mg/kg/injection, schedule: Q08DX002 (ip), vehicle: saline with Tween-80): 112 % of control
T/C (endpoint: median survival time, dose: 512.0 mg/kg/injection, schedule: Q08DX002 (ip), vehicle: saline with Tween-80): 156 % of control

C[Si](C)(c1ccccc1C(=O)Nc1ccccc1)c1ccccc1C(=O)Nc1ccccc1
T/C [1]: 92 % of control
T/C [2]: 96 % of control
T/C [3]: 101 % of control

NC(=S)N/N=C\c1cccs1
T/C [1]: 97 % of control
T/C [2]: 100 % of control
T/C [3]: 96 % of control

CC(=O)O[C@@H]1[C@@H](O)C2=C3[C@]4(C)[C@@H]1C(C)(C)C(=O)C[C@@H]4[C@]3(O)[C@H](OC(C)=O)[C@@]1(C[C@@H]1C)C2=O
T/C (endpoint: mean survival time, dose: 3.12 mg/kg/injection, schedule: Q01DX009 (ip), vehicle: distilled water + Tween-80): 102 % of control
T/C (endpoint: mean survival time, dose: 3.12 mg/kg/injection, schedule: Q01DX009 (ip), vehicle: saline): 96 % of control
T/C (endpoint: mean survival time, dose: 6.25 mg/kg/injection, schedule: Q01DX009 (ip), vehicle: distilled water + Tween-80): 105 % of control
T/C (endpoint: mean survival time, dose: 6.25 mg/kg/injection, schedule: Q01DX009 (ip), vehicle: saline): 102 % of control
T/C (endpoint: mean survival time, dose: 12.5 mg/kg/injection, schedule: Q01DX009 (ip), vehicle: distilled water + Tween-80): 100 % of control
T/C (endpoint: mean survival time, dose: 12.5 mg/kg/injection, schedule: Q01DX009 (ip), vehicle: saline): 104 % of control
T/C (endpoint: mean survival time, dose: 25.0 mg/kg/injection, schedule: Q01DX009 (ip), vehicle: distilled water + Tween-80): 100 % of control
T/C (endpoint: mean survival time, dose: 25.0 mg/kg/injection, schedule: Q01DX009 (ip), vehicle: saline): 104 % of control
T/C (endpoint: mean survival time, dose: 50.0 mg/kg/injection, schedule: Q01DX009 (ip), vehicle: distilled water + Tween-80): 103 % of control
T/C (endpoint: mean survival time, dose: 50.0 mg/kg/injection, schedule: Q01DX009 (ip), vehicle: saline): 108 % of control
T/C (endpoint: mean survival time, dose: 100.0 mg/kg/injection, schedule: Q01DX009 (ip), vehicle: distilled water + Tween-80): 96 % of control
T/C (endpoint: mean survival time, dose: 100.0 mg/kg/injection, schedule: Q01DX009 (ip), vehicle: saline): 111 % of control

Reference: PubChem BioAssay AID256 (DTP/NCI, 2004)
